59 molecules from patent US20110117055A1, “Methods of Treating Hepatitis C Virus with Oxoacetamide Compounds” (priority 2009, published 2011) can be followed below.

Structures are written as SMILES.

This test has as its system HCV2aChLuc virus. Kind of test: In vitro HCVcc entry assay: HCV2aChLuc virus infection of Huh7 cells, Renilla luciferase read-out. The test is classed as cell-based, HCV genotype 2a. Particulars: Hepatitis C virus, Huh-7, read-out: Activity class (IC50), tested according to the method of Example 3.

On to `CC(C)(C)c1ccccc1NC(=O)C(=O)c1ccc(OCCN2CCOCC2)c2ccccc12` [Compound 43], for which the IC50 was greater than 500 nM.

`O=C(Nc1cccc2c1CCC2)C(=O)c1ccc(OCCN2CCOCC2)c2ccccc12` [Compound 65]: the IC50 was in the range of 5 to 500 nM.

With `Cc1ccc(Cl)cc1NC(=O)C(=O)c1ccc(OCCN2CCOCC2)c2ccccc12` [Compound 112], the IC50 is greater than 500 nM.

In the case of `COc1ccc(C2CCCCC2)cc1NC(=O)C(=O)c1ccc(OCCN2CCOCC2)c2ccccc12` [Compound 15, N-(5-cyclohexyl-2-methoxyphenyl)-2-(4-(2-morpholinoethoxy)naphthalen-1-yl)-2-oxoacetamide], the IC50 was less than 5 nM.

Regarding `CC(C)(C)CC(C)(C)NC(=O)C(=O)c1ccc(OCCN2CCOCC2)c2ccccc12` [Compound 67], the IC50 is greater than 500 nM.

Regarding `COc1c(NC(=O)C(=O)c2ccc(OCC[N+]3([O-])CCOCC3)c3ccccc23)cc(C(C)(C)C)cc1NS(C)(=O)=O` [Compound 92], the IC50 was 5 to 500 nM.

For the molecule `CC(C)(C)c1cc(N)nc(NC(=O)C(=O)c2ccc(OCCN3CCOCC3)c3ccccc23)n1` [Compound 48], the IC50 was greater than 500 nM.

For `COc1c(NC(=O)C(=O)c2ccc(OCCN3CCOCC3)c3ccccc23)cc(C(C)(C)C)cc1C(=O)NC1CCN(C)CC1` [Compound 103], the IC50 is greater than 500 nM.

In the case of `COc1c(NC(=O)C(=O)c2ccc(OCCN3CCOCC3)c3cccc(Cl)c23)cc(C(C)(C)C)cc1NS(C)(=O)=O` [Compound 76], the IC50 was greater than 500 nM.

`Cc1ccc(-n2nc(C(C)(C)C)cc2NC(=O)C(=O)c2ccc(CCN3CCNCC3)c3ccccc23)cc1` [Compound 39]: the IC50 was greater than 500 nM.

For the molecule `CC(C)(C)c1cc(C(F)(F)F)nc(NC(=O)C(=O)c2ccc(OCCN3CCOCC3)c3ccccc23)n1` [Compound 47], the IC50 is greater than 500 nM.

With `CC(=O)n1nc(C(C)(C)C)cc1NC(=O)C(=O)c1ccc(OCCN2CCOCC2)c2ccccc12` [Compound 46], the IC50 is greater than 500 nM.

Take `COc1c(NC(=O)C(=O)c2ccc(OCCN3CCN(C(=O)OC(C)(C)C)CC3)c3ccccc23)cc(C(C)(C)C)cc1NS(C)(=O)=O` [Compound 56]: the IC50 lay within 5 to 500 nM.

`COc1c(Cl)cc(C(C)(C)C)cc1NC(=O)C(=O)c1ccc(OCCN2CCOCC2)c2ccccc12` [Compound 72]: the 50% inhibitory concentration (IC50) was 5 to 500 nM.

On to `CC1(C)[C@@H]2CC[C@@]1(C)[C@@H](NC(=O)C(=O)c1ccc(OCCN3CCOCC3)c3ccccc13)C2` [Compound 69], for which the IC50 is greater than 500 nM.

On to `COc1c(NC(=O)C(=O)c2ccc(OCCN3CCOCC3)c3ccccc23)cc(C(C)(C)C)cc1N(CCN1CCOCC1)S(C)(=O)=O` [Compound 117], for which the IC50 is greater than 500 nM.

Take `CNc1ccc(-c2ccc(C(=O)C(=O)Nc3cc(C(C)(C)C)cc(C(=O)NC4CC4)c3OC)c3ccccc23)cn1` [Compound 130]: the IC50 is greater than 500 nM.

For the molecule `O=C(NC1CCc2ccccc21)C(=O)c1ccc(OCCN2CCOCC2)c2ccccc12` (centres unmarked) [Compound 115], the half-inhibitory concentration (IC50) was greater than 500 nM.

Turning to `COc1c(NC(=O)C(=O)c2ccc(OCCN3CCOCC3)c3ccccc23)cc(C(C)(C)C)cc1C(=O)N1CCCCC1CN(C)C` (centres unmarked) [Compound 106], the IC50 is greater than 500 nM.

Regarding `Cc1ccc(-n2nc(C(C)(C)C)cc2NC(=O)C(=O)c2ccc(OCCN3CCCOCC3)c3ccccc23)cc1` [Compound 38], the IC50 is greater than 500 nM.

As to `COc1c(NC(=O)C(=O)c2ccc(OCCN3CC(C)OC(C)C3)c3ccccc23)cc(C(C)(C)C)cc1NS(C)(=O)=O` (centres unmarked) [Compound 57], the IC50 was in the range of 5 to 500 nM.

As to `CCCS(=O)(=O)Nc1cc(C(C)(C)C)cc(NC(=O)C(=O)c2ccc(N3CCC(CC(=O)OCC)CC3)c3ccccc23)c1OC` [Compound 87], the IC50 is greater than 500 nM.

Consider `COc1c(C#N)cc(C(C)(C)C)cc1NC(=O)C(=O)c1ccc(-c2ccc(NCCC(C)(C)C)nc2)c2ccccc12` [Compound 94], for which the IC50 was greater than 500 nM.

For the molecule `CCOC(=O)N1CCN(CCOc2ccc(C(=O)C(=O)Nc3cc(C(C)(C)C)cc(NS(C)(=O)=O)c3OC)c3ccccc23)CC1` [Compound 52], the IC50 is 5 to 500 nM.

With `COc1c(NC(=O)C(=O)c2ccc(OCCN3CCOCC3)c3ccccc23)cc(C(C)(C)C)cc1-c1nnn[nH]1` [Compound 91], the IC50 was greater than 500 nM.

Take `COc1c(NC(=O)C(=O)c2ccc(OCCN3CCOCC3)c3ccccc23)cc(C(C)(C)C)cc1C(=O)N1CC2CCC(C1)N2` [Compound 104]: the IC50 is greater than 500 nM.

Consider `COc1c(NC(=O)C(=O)c2ccc(OCCN3CCOCC3)c3ccccc23)cc(C)cc1NS(C)(=O)=O` [Compound 13, N-(2-methoxy-5-methyl-3-(methylsulfonamido)phenyl)-2-(4-(2-morpholinoethoxy)naphthalen-1-yl)-2-oxoacetamide], for which the IC50 lay in the range of 5 to 500 nM.

As to `Cc1ccc(C)c(NC(=O)C(=O)c2ccc(OCCN3CCOCC3)c3ccccc23)c1` [Compound 63], the concentration for half-maximal inhibition (IC50) was greater than 500 nM.

Take `CC(C)(C)c1ccc(O)c(NC(=O)C(=O)c2ccc(OCCN3CCOCC3)c3ccccc23)c1` [Compound 122]: the IC50 was 5 to 500 nM.

Consider `COc1c(NC(=O)C(=O)c2ccc(OCCN3CCOCC3)c3ccccc23)cc(C(C)(C)C)cc1C(=O)N1CCN(CCO)CC1` [Compound 101], for which the IC50 was greater than 500 nM.

Take `COc1c(NC(=O)C(=O)c2ccc(OCCCS(=O)(=O)N(C)C)c3ccccc23)cc(C(C)(C)C)cc1NS(C)(=O)=O` [Compound 123]: the IC50 lay in the range of 5 to 500 nM.

Turning to `O=C(Nc1ccc2c(c1)CCC2)C(=O)c1ccc(OCCN2CCOCC2)c2ccccc12` [Compound 64], the IC50 was greater than 500 nM.

Consider `COc1c(NC(=O)C(=O)c2ccc(OCCN3CCOCC3)c3ccccc23)cccc1NS(C)(=O)=O` [Compound 110], for which the IC50 is greater than 500 nM.

On to `COc1c(NC(=O)C(=O)c2ccc(OCCN3CC(C)(C)OC(C)(C)C3)c3ccccc23)cc(C(C)(C)C)cc1NS(C)(=O)=O` [Compound 96], for which the IC50 lay in the range of 5 to 500 nM.

For the molecule `CNC(=O)c1sc(C(C)(C)C)cc1NC(=O)C(=O)c1ccc(OCCN2CCOCC2)c2ccccc12` [Compound 12, 5-tert-butyl-N-methyl-3-(2-(4-(2-morpholinoethoxy)naphthalen-1-yl)-2-oxoacetamido)thiophene-2-carboxamide], the IC50 was less than 5 nM.

As to `COc1c(N)cc(C(C)(C)C)cc1NC(=O)C(=O)c1cccc2ccccc12` [Compound 132], the IC50 is greater than 500 nM.

For `COc1c(NC(=O)C(=O)c2ccc(OCCN(CCOCc3ccccc3)CCOCc3ccccc3)c3ccccc23)cc(C(C)(C)C)cc1NS(C)(=O)=O` [Compound 93], the IC50 was greater than 500 nM.

Take `CCNC(=O)c1cc(C(C)(C)C)cc(NC(=O)C(=O)c2ccc(OCCN3CCOCC3)c3ccccc23)c1O` [Compound 71]: the IC50 lay within 5 to 500 nM.

Take `COc1c(NC(=O)C(=O)c2ccc(OCCN(CCO)CCO)c3ccccc23)cc(C(C)(C)C)cc1NS(C)(=O)=O` [Compound 3, 2-(4-(2-(bis(2-hydroxyethyl)amino)ethoxy)-naphthalen-1-yl)-N-(5-tert-butyl-2-methoxy-3-(methylsulfonamido)phenyl)-2-oxoacetamide]: the IC50 is less than 5 nM.

On to `COc1c(NC(=O)C(=O)c2ccc(OCCN(C)C)c3ccccc23)cc(C(C)(C)C)cc1NS(C)(=O)=O` [Compound 80], for which the IC50 is greater than 500 nM.

For the molecule `COc1ccc(C(F)(F)F)cc1NC(=O)C(=O)c1ccc(OCCN2CCOCC2)c2ccccc12` [Compound 28], the IC50 is greater than 500 nM.

Take `COCCOCCOc1ccc(C(=O)C(=O)Nc2cc(C(C)(C)C)cc(NS(C)(=O)=O)c2OC)c2ccccc12` [Compound 86]: the IC50 was greater than 500 nM.

In the case of `CC(C)(C)c1cc(NC(=O)C(=O)c2ccc(OCCN3CCOCC3)c3ccccc23)on1` [Compound 70], the IC50 was greater than 500 nM.

With `CC(C)(C)CCNC(=O)C(=O)c1ccc(OCCN2CCOCC2)c2ccccc12` [Compound 66], the IC50 was greater than 500 nM.

`CC(C)(C)c1cc(C#N)cc(NC(=O)C(=O)c2ccc(Br)c3ccccc23)c1` [Compound 88]: the IC50 is greater than 500 nM.

With `COc1c(NC(=O)C(=O)c2ccc(OCCN3CCOCC3)c3ccccc23)cc(C(C)(C)C)cc1C(=O)N1CCN(C)CC1` [Compound 98], the half-inhibitory concentration (IC50) is greater than 500 nM.

As to `CC(C)(C)c1cccc(NC(=O)C(=O)c2ccc(OCCN3CCOCC3)c3ccccc23)c1` [Compound 27], the IC50 was greater than 500 nM.

`CCN(CC)CCOc1ccc(C(=O)C(=O)Nc2cc(C(C)(C)C)cc(NS(C)(=O)=O)c2OC)c2ccccc12` [Compound 79]: the IC50 was greater than 500 nM.

Take `COc1c(NC(=O)C(=O)c2ccc(OCC(N)=O)c3ccccc23)cc(C(C)(C)C)cc1NS(C)(=O)=O` [Compound 85]: the IC50 is greater than 500 nM.

For the molecule `CC(C)(C)c1ccc(NC(=O)C(=O)c2ccc(OCCN3CCOCC3)c3ccccc23)cc1` [Compound 32], the half-inhibitory concentration (IC50) is greater than 500 nM.

Turning to `COc1c(NC(=O)C(=O)c2ccc(OCCN3CCOCC3)c3ccc(Cl)cc23)cc(C(C)(C)C)cc1NS(C)(=O)=O` [Compound 74], the IC50 is 5 to 500 nM.

`COc1c(NC(=O)C(=O)c2ccc(OC)c3ccccc23)cc(C(C)(C)C)cc1C(=O)NCC1CC1` [Compound 17, 5-tert-butyl-N-(cyclopropylmethyl)-2-methoxy-3-(2-(4-methoxynaphthalen-1-yl)-2-oxoacetamido)benzamide]: the IC50 was less than 5 nM.

Take `O=C(N[C@@H]1C[C@H]2CC[C@@H]1C2)C(=O)c1ccc(OCCN2CCOCC2)c2ccccc12` [Compound 68]: the IC50 is greater than 500 nM.

As for `O=C(Nc1cc(C(F)(F)F)ccc1Br)C(=O)c1ccc(OCCN2CCOCC2)c2ccccc12` [Compound 83], the IC50 was greater than 500 nM.

`COc1c(NC(=O)C(=O)c2ccc(OCCN3CCOCC3)c3ccccc23)cc(C(C)(C)C)cc1NC(=O)N1CCCC1` [Compound 22]: the IC50 was in the range of 5 to 500 nM.

With `COc1c(NC(=O)C(=O)c2ccc(OCCN3CCOCC3)c3ccccc23)cc(C(C)(C)C)cc1C(=O)N1CCCCC1` [Compound 25], the IC50 was in the range of 5 to 500 nM.

For the molecule `COc1c(NC(=O)C(=O)c2ccc(OCCN3CCOCC3)c3ccccc23)cc(C(C)(C)C)cc1C(=O)NC1CCNCC1` [Compound 105], the IC50 is greater than 500 nM.

`COc1c(NC(=O)C(=O)c2ccc(OCCn3ccnc3)c3ccccc23)cc(C(C)(C)C)cc1NS(C)(=O)=O` [Compound 55]: the IC50 fell in the range of 5 to 500 nM.

As to `CC(C)(C)c1nnc(NC(=O)C(=O)c2ccc(OCCN3CCOCC3)c3ccccc23)s1` [Compound 61], the IC50 was greater than 500 nM.
